Measurements reported in patent publication US6203822A, “Gallium-containing compounds for the treatment of infections caused by intracellular pathogens and pathogens causing chronic pulmonary infection” (priority 1996, dated 2001).
Where two headings read alike, the source gives them in different places.

What was measured:
[1] = test system: M. tuberculosis strain H37Ra; type: cell-based
[2] = known from literature; cited from earlier work
[3] = test system: macrophage monolayers (MDMs); experiment: Gallium toxicity in uninfected MDM monolayers; type: cell-based, human; conditions: in most cases, equivalent to untreated controls
Experimental: To test the potential toxicity of gallium nitrate on the standard macrophage monolayers (MDMs) used in the assays described in this invention, uninfected MDM monolayers were incubated with various concentrations of gallium nitrate in the range used in the studies described in Examples 2 and 3.
There was no immediate difference in monolayer density between MDM monolayers with and without gallium nitrate treatment up to a gallium concentration of 2 mM. Results were based on counting napthol blue macrophage stained nuclei from the monolayer. These numbers directly correlate with the number of cells present. In most cases the integrity of the MDM monolayer in the presence of gallium was maintained for up to 37 days, equivalent to untreated, uninfected control cultures.

bone cell = conditions: cancer patients, large scale clinical studies (Todd et al.); cited from earlier work
[4] = test system: M. tuberculosis in human alveolar macrophages; experiment: M. tuberculosis in human alveolar macrophages, gallium nitrate with or without anti-tuberculous antibiotics; type: cell-based; conditions: full doses of first line antibiotics, by 24 h
Experimental: The gallium-containing compounds can also be tested for their ability to inhibit intracellular pathogens in tissue culture assays. In general, in these assays, the macrophages are placed in culture and incubated with the intracellular pathogen at an approximate cell to pathogen ratio of preferably at least 1:1 to about 1:5 cells:pathogen. Exemplary culture conditions are provided in the assays detailed in the Examples. For assays assessing M. tuberculosis infection, freshly adherent monocytes, 12 day-old adherent MDMs, or freshly adherent alveolar macrophages are incubated with M. tuberculosis, MAI or other intracellular bacteria at a ratio of about 1:1 to about 1:5 (phagocyte:bacterium). For M. tuberculosis or MAI, the bacteria are incubated with the phagocyte for 2 hr at 37° C. in RPMI/HEPES media with 2.5% serum or human serum albumin (serum-free). The cells are washed to remove non-adherent bacteria and monolayers are replated with RPMI containing 1% autologous serum (to maintain phagocyte viability but not to sustain extracellular growth of bacteria). Gallium-containing compounds, such as gallium nitrate, with, or without, other agents such as antibiotics, cytokines etc., are added about 24 hr. later and mycobacterial growth in cell lysates is then assessed over the next several days either by the radiometric BACTEC system or by colony-forming units on agarose plates. In each experiment, growth is assessed relative to control monolayers where no drug has been added.
Human alveolar macrophages were purified from healthy non-smoking adult volunteers and placed in monolayer culture. M. tuberculosis infected cells were treated with gallium nitrate as described in Example 2. Antituberculous antibiotics were added to wells alone or with gallium nitrate at 500 μM 24 h after M. tuberculosis infection. Antituberculous antibiotics tested included streptomycin (2.016 μg/ml), isoniazid (0.1 μg/ml), rifampin (2.0 μg/ml), and ethambutol (2.52 μg/ml) and the combination of antibiotics was denoted as SIRE. Antibiotics were obtained in lyophilized form from BACTEC. The antibiotics were reconstituted in sterile water per package instructions. With reference to FIG. 3, SIRE refers to combinations of streptomycin, isoniazid, rifampin and ethambutol while IR refers to combinations of Isoniazid and rifampin.
Infected macrophages were cultured for 24 h, 48 h, or 120 h. Growth index readings of combined supernatants and cell lysates were measured in the BACTEC 460 TB system. […] Since these antibiotics have a number of unpleasant side effects that are reduced at reduced concentrations of the drugs, combined therapies that permit these antibiotics to be administered at lower doses when combined with gallium nitrate is significant and may help to promote better drug compliance in patients infected with M. tuberculosis.

[5] = test system: macrophage ferritin and transferrin receptors; conditions: Byrd, et al.; cited from earlier work
[6] = test system: M. tuberculosis in macrophages; type: cell-based

transferrin: control cultures were treated with transferrin alone; Human apotransferrin (Sigma Chemicals)
bacterial growth inhibition, control culture ([1]; transferrin alone): no inhibition in bacterial growth

[Ga] [gallium]
tissue accumulation [2]: accumulate in cells of mononuclear origin in the liver, kidney, spleen and lymphatic system
time integrity of MDM monolayer maintained in presence of gallium [3]: up to 37 days
effect on bone cell morphology or viability (bone cell): did not affect bone cell morphology or viability

CC[C@@H](CO)NCCN[C@@H](CC)CO [ethambutol]
growth inhibition by full doses of first line antibiotics [4]: quite potent

interferon-γ: Human interferon-γ (Genzyme, Cambridge, Mass.), cytokine
effect on expression of transferrin receptors [5]: down regulate expression of transferrin receptors
effect on macrophage ferritin levels [5]: down regulate macrophage ferritin levels
augmentation of gallium nitrate growth inhibition ([6]; IFN-γ in combination with 0 to about 400 μM gallium nitrate): at least 50%
augmentation of gallium nitrate growth inhibition ([6]; interferon-γ various concentrations (0-1000U), gallium nitrate at 100 μM): ≥ 50%

CO[C@H]1/C=C/O[C@@]2(C)Oc3c(C)c(O)c4c(O)c(c(/C=N/N5CCN(C)CC5)c(O)c4c3C2=O)NC(=O)/C(C)=C\C=C\[C@H](C)[C@H](O)[C@@H](C)[C@@H](O)[C@@H](C)[C@H](OC(C)=O)[C@@H]1C [rifampin]
growth inhibition by full doses of first line antibiotics [4]: quite potent

NNC(=O)c1ccncc1 [isoniazid]
growth inhibition by full doses of first line antibiotics [4]: quite potent

[H]/N=C(/N)N[C@H]1[C@H](O)[C@@H](O)[C@H](O[C@@H]2O[C@@H](C)[C@](O)(C=O)[C@H]2O[C@@H]2O[C@@H](CO)[C@H](O)[C@@H](O)[C@@H]2NC)[C@@H](N/C(N)=N\[H])[C@@H]1O [streptomycin]
growth inhibition by full doses of first line antibiotics [4]: quite potent

gallium transferrin: Human apotransferrin mixed 1:1 (by molar ratio) with gallium
concentration of gallium with marked inhibition of growth ([1]; growth index Day 10, broth culture, apotransferrin mixed 1:1 with gallium): 75 µM
